How the values were obtained:
[1] = (§1) The drug is tested on WLS-220 corresponding to human gut metagenome with ENA study accession number: PRJEB37062 and ENA sample accession number: ERS12561769 for biotransformation under anaerobic condition. The drug concentrations were measured over 9 timepoints collected between 0 and 24 hours of incubation by liquid-chromatography-coupled mass spectrometry (LC–MS); settings: 2 µM
[2] = human gut metagenome, 24 h, 2 µM
[3] = as §1, with “WLS-052” for “WLS-220”, “ERS12561747” for “ERS12561769”; settings: 2 µM
[4] = human gut metagenome, 24 h, 2 µM; remark: listed apart in the source
[5] = as §1, with “WLS-027” for “WLS-220”, “ERS12561744” for “ERS12561769”; settings: 2 µM
[6] = as §1, with “Z-010” for “WLS-220”, “to” for “to human gut”, “ERS12561810” for “ERS12561769”; settings: 2 µM
[7] = human gut metagenome, 24 h, 2 µM; remark: listed apart in the source
[8] = as §1, with “WLS-039” for “WLS-220”, “ERS12561746” for “ERS12561769”; settings: 2 µM
[9] = human gut metagenome, 24 h, 2 µM; remark: listed apart in the source
[10] = as §1, with “Z-005” for “WLS-220”, “to” for “to human gut”, “ERS12561805” for “ERS12561769”; settings: 2 µM
[11] = as §1, with “WLS-069” for “WLS-220”, “ERS12561748” for “ERS12561769”; settings: 2 µM
[12] = human gut metagenome, 24 h, 2 µM; remark: listed apart in the source
[13] = as §1, with “Z-026” for “WLS-220”, “to” for “to human gut”, “ERS12561825” for “ERS12561769”; settings: 2 µM
[14] = as §1, with “Z-020” for “WLS-220”, “rabbit” for “human”, “ERS12561819” for “ERS12561769”; settings: 2 µM
[15] = as §1, with “WLS-090” for “WLS-220”, “ERS12561753” for “ERS12561769”; settings: 2 µM
[16] = as §1, with “Z-011” for “WLS-220”, “mouse” for “human”, “ERS12561811” for “ERS12561769”; settings: 2 µM
[17] = as §1, with “WLS-082” for “WLS-220”, “ERS12561751” for “ERS12561769”; settings: 2 µM
[18] = human gut metagenome, 24 h, 2 µM; remark: listed apart in the source
[19] = as §1, with “Z-024” for “WLS-220”, “pig” for “human”, “ERS12561823” for “ERS12561769”; settings: 2 µM
[20] = as §1, with “WLS-310” for “WLS-220”, “ERS12561785” for “ERS12561769”; settings: 2 µM
Note: call rule not given here.

Structure (SMILES)	Bacterial Biotransformation [1]	Bacterial Biotransformation [2]	Bacterial Biotransformation [3]	Bacterial Biotransformation [4]	Bacterial Biotransformation [5]	Bacterial Biotransformation [6]	Bacterial Biotransformation [7]	Bacterial Biotransformation [8]	Bacterial Biotransformation [9]	Bacterial Biotransformation [10]	Bacterial Biotransformation [11]	Bacterial Biotransformation [12]	Bacterial Biotransformation [13]	Bacterial Biotransformation [14]	Bacterial Biotransformation [15]	Bacterial Biotransformation [16]	Bacterial Biotransformation [17]	Bacterial Biotransformation [18]	Bacterial Biotransformation [19]	Bacterial Biotransformation [20]
CO[C@]12C[C@@H](COC(=O)c3cncc(Br)c3)CN(C)[C@@H]1Cc1cn(C)c3cccc2c13 [NICERGOLINE]	Compound NOT metabolized	Compound NOT metabolized	Compound metabolized	Compound NOT metabolized	Compound metabolized	Compound metabolized	Compound NOT metabolized	Compound metabolized	Compound NOT metabolized	Compound metabolized	Compound NOT metabolized	Compound NOT metabolized	Compound metabolized	Compound NOT metabolized	Compound metabolized	Compound metabolized	Compound NOT metabolized	Compound NOT metabolized	Compound metabolized	Compound NOT metabolized
Cc1ccnc2c1NC(=O)c1cccnc1N2C1CC1 [NEVIRAPINE]	Compound metabolized	Compound NOT metabolized	Compound NOT metabolized	Compound NOT metabolized	Compound NOT metabolized	Compound NOT metabolized	Compound metabolized	Compound NOT metabolized	Compound metabolized	Compound NOT metabolized	Compound NOT metabolized	Compound NOT metabolized	Compound NOT metabolized	Compound NOT metabolized	Compound metabolized	Compound NOT metabolized	Compound NOT metabolized	Compound metabolized	Compound NOT metabolized	Compound metabolized
CCN(CC)C(C)CN1c2ccccc2Sc2ccccc21 (stereo not given) [ETHOPROPAZINE]	Compound metabolized	Compound NOT metabolized	Compound metabolized	Compound metabolized	Compound metabolized	Compound metabolized	Compound metabolized	Compound metabolized	Compound NOT metabolized	Compound metabolized	Compound metabolized	Compound metabolized	Compound NOT metabolized	Compound NOT metabolized	Compound metabolized	Compound NOT metabolized	Compound metabolized	Compound metabolized	Compound metabolized	Compound metabolized
COc1cc2nc(N(C)CCCNC(=O)C3CCCO3)nc(N)c2cc1OC (stereo not given) [ALFUZOSIN]	Compound metabolized	Compound NOT metabolized	Compound metabolized	Compound metabolized	Compound NOT metabolized	Compound metabolized	Compound metabolized	Compound NOT metabolized	Compound NOT metabolized	Compound NOT metabolized	Compound metabolized	Compound NOT metabolized	Compound NOT metabolized	Compound NOT metabolized	Compound metabolized	Compound metabolized	Compound metabolized	Compound metabolized	Compound NOT metabolized	Compound metabolized
COc1ccccc1OCC(O)COC(N)=O (stereo not given) [METHOCARBAMOL]	Compound NOT metabolized	Compound NOT metabolized	Compound NOT metabolized	Compound NOT metabolized	Compound NOT metabolized	Compound NOT metabolized	Compound NOT metabolized	Compound NOT metabolized	Compound NOT metabolized	Compound NOT metabolized	Compound NOT metabolized	Compound NOT metabolized	Compound NOT metabolized	Compound NOT metabolized	Compound NOT metabolized	Compound NOT metabolized	Compound NOT metabolized	Compound NOT metabolized	Compound NOT metabolized	Compound NOT metabolized
CCOC(=O)[C@H](CCc1ccccc1)N[C@@H](C)C(=O)N1[C@H](C(=O)O)C[C@H]2CCCC[C@@H]21 [TRANDOLAPRIL]	Compound metabolized	Compound NOT metabolized	Compound metabolized	Compound metabolized	Compound metabolized	Compound metabolized	Compound metabolized	Compound metabolized	Compound metabolized	Compound metabolized	Compound metabolized	Compound NOT metabolized	Compound NOT metabolized	Compound metabolized	Compound metabolized	Compound NOT metabolized	Compound metabolized	Compound metabolized	Compound metabolized	Compound metabolized
Cc1cc2c(cc1S(N)(=O)=O)S(=O)(=O)CCC2	Compound NOT metabolized	Compound NOT metabolized	Compound NOT metabolized	Compound NOT metabolized	Compound NOT metabolized	Compound NOT metabolized	Compound NOT metabolized	Compound NOT metabolized	Compound NOT metabolized	Compound NOT metabolized	Compound NOT metabolized	Compound NOT metabolized	Compound NOT metabolized	Compound NOT metabolized	Compound NOT metabolized	Compound NOT metabolized	Compound NOT metabolized	Compound NOT metabolized	Compound NOT metabolized	Compound NOT metabolized
O=C(Nc1ccccc1)OCC(CN1CCCCC1)OC(=O)Nc1ccccc1 (stereo not given) [DIPERODON]	Compound metabolized	Compound NOT metabolized	Compound NOT metabolized	Compound NOT metabolized	Compound metabolized	Compound metabolized	Compound metabolized	Compound NOT metabolized	Compound NOT metabolized	Compound NOT metabolized	Compound metabolized	Compound NOT metabolized	Compound NOT metabolized	Compound NOT metabolized	Compound metabolized	Compound NOT metabolized	Compound metabolized	Compound NOT metabolized	Compound metabolized	Compound metabolized

Reference: ChEMBL document CHEMBL5724914, “Linking interpersonal differences in gut microbiota composition and drug biotransformation activity” (2024)
